Values of other authors as cited in patent US6901278B1, “Methods for reducing the risk of breast cancer in and improving the health of women” (priority 2002, dated 2005).

Settings: following first-pass hepatic metabolism

- bioavailable fraction of oral estradiol: 5%
Structure (SMILES): C[C@]12CC[C@@H]3c4ccc(O)cc4CC[C@H]3[C@@H]1CC[C@@H]2O [Estradiol, 17β-estradiol]
